We go through 24 molecules from patent US8586739B2, “Heterocyclic compounds and their uses” (Amgen Inc., priority 2007, dated 2013).

The test system of one test is P110β. The following applies: cited from earlier work.
Test [1] relates to mouse model of rheumatoid arthritis. The following applies: in vivo; cited from earlier work.
Test [2] deals with model of systemic lupus erythematosis. As to conditions: in vivo; cited from earlier work.
A further test has as its target T1, PI3Kδ (Homo sapiens, UniProt O00329).
T1 construct: Full length p110 subunits of PI3k α, β and δ, N-terminally labeled with polyHis tag; polyHis (N); made in house; host or cells: Sf9 insect cells (baculovirus)
The test can be described thus: In vitro enzyme assay of recombinant PI3K (residual ATP bioluminescence). The test is classed as biochemical. Here is the method:
Recombinant Expression of PI3Ks
Full length p110 subunits of PI3k α, β and δ, N-terminally labeled with polyHis tag, were coexpressed with p85 with Baculo virus expression vectors in sf9 insect cells. P110/p85 heterodimers were purified by sequential Ni-NTA, Q-HP, Superdex-100 chromatography. Purified α, β and δ isozymes were stored at −20° C. in 20 mM Tris, pH 8, 0.2M NaCl, 50% glycerol, 5 mM DTT, 2 mM Na cholate. Truncated PI3Kγ, residues 114-1102, N-terminally labeled with polyHis tag, was expessed with Baculo virus in Hi5 insect cells. The γ isozyme was purified by sequential Ni-NTA, Superdex-200, Q-HP chromatography. The γ isozyme was stored frozen at −80° C. in NaH2PO4, pH 8, 0.2M NaCl, 1% ethylene glycol, 2 mM β-mercaptoethanol.
Assays were performed in 25 μL with the above final concentrations of components in white polyproplyene plates (Costar 3355). Phospatidyl inositol phosphoacceptor, PtdIns(4,5)P2 P4508, was from Echelon Biosciences. The ATPase activity of the alpha and gamma isozymes was not greatly stimulated by PtdIns(4,5)P2 under these conditions and was therefore omitted from the assay of these isozymes. Test compounds were dissolved in dimethyl sulfoxide and diluted with three-fold serial dilutions. The compound in DMSO (1 μL) was added per test well, and the inhibition relative to reactions containing no compound, with and without enzyme was determined. After assay incubation at room temperature, the reaction was stopped and residual ATP determined by addition of an equal volume of a commercial ATP bioluminescence kit (Perkin Elmer EasyLite) according to the manufacturer's instructions, and detected using a AnalystGT luminometer.

For the next test, the system named is p110δ. The following applies: cited from earlier work.
For a further test, the system named is protein kinases. The following applies: cited from earlier work.
The subject of the next test is murine model of asthma. As to conditions: ovalbumin-induced airway inflammation; cited from earlier work.

T1 sequence (O00329 whole entry): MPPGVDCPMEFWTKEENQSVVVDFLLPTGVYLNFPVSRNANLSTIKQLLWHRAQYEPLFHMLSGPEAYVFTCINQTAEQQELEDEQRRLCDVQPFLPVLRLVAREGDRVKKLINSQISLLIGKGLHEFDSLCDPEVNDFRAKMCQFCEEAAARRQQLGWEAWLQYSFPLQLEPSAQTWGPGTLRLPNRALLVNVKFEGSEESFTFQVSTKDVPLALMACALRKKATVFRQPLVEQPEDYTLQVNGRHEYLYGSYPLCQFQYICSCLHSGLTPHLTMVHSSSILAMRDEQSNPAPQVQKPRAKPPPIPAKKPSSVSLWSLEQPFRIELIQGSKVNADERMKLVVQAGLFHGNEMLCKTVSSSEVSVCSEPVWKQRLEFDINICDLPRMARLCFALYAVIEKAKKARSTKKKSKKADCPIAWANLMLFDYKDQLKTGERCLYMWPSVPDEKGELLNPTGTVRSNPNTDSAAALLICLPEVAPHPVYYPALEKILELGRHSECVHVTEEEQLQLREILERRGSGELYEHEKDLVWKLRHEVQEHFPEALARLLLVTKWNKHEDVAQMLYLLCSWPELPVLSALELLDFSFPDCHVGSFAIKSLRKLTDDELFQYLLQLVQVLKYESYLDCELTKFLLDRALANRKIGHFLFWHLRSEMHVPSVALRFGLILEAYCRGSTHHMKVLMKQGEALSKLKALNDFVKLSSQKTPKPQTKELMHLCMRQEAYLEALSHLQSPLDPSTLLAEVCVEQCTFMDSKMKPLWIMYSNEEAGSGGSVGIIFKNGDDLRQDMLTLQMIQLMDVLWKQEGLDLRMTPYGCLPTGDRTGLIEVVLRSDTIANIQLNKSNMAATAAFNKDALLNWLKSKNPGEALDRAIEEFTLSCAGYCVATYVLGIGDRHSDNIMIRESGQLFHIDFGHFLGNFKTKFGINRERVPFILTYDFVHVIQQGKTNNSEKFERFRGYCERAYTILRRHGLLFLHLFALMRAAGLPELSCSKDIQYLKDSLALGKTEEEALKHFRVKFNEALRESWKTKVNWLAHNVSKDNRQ
T1 sequence (P27986 whole entry partner): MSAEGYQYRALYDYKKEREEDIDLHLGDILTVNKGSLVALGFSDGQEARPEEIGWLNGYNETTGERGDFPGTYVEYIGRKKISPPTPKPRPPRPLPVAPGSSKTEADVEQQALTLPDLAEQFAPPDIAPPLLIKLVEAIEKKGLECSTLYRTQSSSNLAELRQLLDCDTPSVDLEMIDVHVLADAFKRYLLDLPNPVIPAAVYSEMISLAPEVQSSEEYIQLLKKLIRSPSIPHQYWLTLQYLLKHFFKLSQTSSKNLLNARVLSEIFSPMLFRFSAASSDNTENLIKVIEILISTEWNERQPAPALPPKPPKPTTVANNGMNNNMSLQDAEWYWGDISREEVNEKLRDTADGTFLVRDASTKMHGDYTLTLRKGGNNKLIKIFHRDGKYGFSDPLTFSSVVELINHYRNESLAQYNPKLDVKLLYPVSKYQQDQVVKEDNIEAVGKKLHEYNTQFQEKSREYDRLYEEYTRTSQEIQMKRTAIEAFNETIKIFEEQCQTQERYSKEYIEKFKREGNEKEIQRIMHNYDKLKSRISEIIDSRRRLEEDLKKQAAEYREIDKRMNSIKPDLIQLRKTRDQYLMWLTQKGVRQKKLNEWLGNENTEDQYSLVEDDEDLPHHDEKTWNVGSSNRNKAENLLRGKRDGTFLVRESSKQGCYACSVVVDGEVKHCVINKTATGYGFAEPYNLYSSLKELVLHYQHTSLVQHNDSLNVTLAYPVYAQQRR

For the molecule `Cc1cc(C(C)Nc2ccccc2)c2nc(N3CCOCC3)cc(=O)n2c1` (stereo not drawn) [TGX-221], in the test with P110β (beta versus alpha), the selective over alpha result is on record as “more than 500 fold”. Further, the selective over delta in the test with P110β (beta versus delta) is 14 fold. The selective over gamma result with P110β (beta versus gamma) is given as “more than 500 fold”. For the same molecule, in the test with P110β (read-out: potency on beta), the IC50 is 7 nM.
In the case of `O=C1NC(=O)/C(=C\c2ccc3nccnc3c2)S1` [AS 605240], the “efficacy in a mouse model of rheumatoid arthritis” value in test [1] was “efficacious”. For the same molecule, the “onset of disease in a model of systemic lupus erythematosis” value in test [2] is given as “delay onset of disease”.
Regarding `C[C@H](Nc1ncnc2[nH]cnc12)c1nc2cccc(Cl)c2cc1-c1cccc(F)c1` [Example 43, N-((S)-1-(5-Chloro-3-(3-fluorophenyl)quinolin-2-yl)ethyl)-9H-purin-6-amine], the IC50 on PI3Kδ stood at 5 nM.
For `Cc1cccc2nc(CNc3ncnc4[nH]cnc34)c(-c3ccccc3Cl)nc12` [Example 19, N-((3-(2-Chlorophenyl)-5-methylquinoxalin-2-yl)methyl)-9H-purin-6-amine], on PI3Kδ, the IC50 came out at 66 nM.
Still for that read-out and setting: in the case of `Fc1ccc2nc(-c3ccccc3Cl)c(CNc3ncnc4[nH]cnc34)cc2c1` [Example 37, N-((2-(2-Chlorophenyl)-6-fluoroquinolin-3-yl)methyl)-9H-purin-6-amine] it was 1680 nM; in that of `Cc1ccccc1-c1nc2c(C)cccc2cc1COc1ncnc2[nH]ccc12` [Example 14], 56 nM.
As to `Cc1cccc2cc(C(C)Nc3ncnc4[nH]cnc34)c(-c3ccccc3Cl)nc12` (stereo not drawn) [Example 6, N-(1-(2-(2-Chlorophenyl)-8-methylquinolin-3-yl)ethyl)-9H-purin-6-amine], on PI3Kδ, the IC50 was 31 nM.
Same read-out and setting: the same measure for `COc1ccccc1-c1nc2c(C)cccc2cc1COc1ncnc2[nH]cnc12` [Example 7, 3-((9H-Purin-6-yloxy)methyl)-2-(2-methoxyphenyl)-8-methylquinoline]: 38 nM; for `Cc1ccccc1-c1nc2c(C)cccc2cc1CNc1ncnc2[nH]cnc12` [Example 1, N-((8-Methyl-2-o-tolylquinolin-3-yl)methyl)-9H-purin-6-amine]: 84 nM.
The same measure, in the same setting: in the case of `Clc1cccc2cc(CNc3ncnc4[nH]ccc34)c(-c3ccccc3)nc12` [Example 32, N-((8-chloro-2-phenylquinolin-3-yl)methyl)-7H-pyrrolo[2,3-d]pyrimidin-4-amine] it was 270 nM; in that of `Cc1cccc2cc(CNc3ncnc4[nH]cnc34)c(-c3ccccc3C(F)(F)F)nc12` [Example 16, N-((8-Methyl-2-(2-(trifluoromethyl)phenyl)quinolin-3-yl)methyl)-9H-purin-6-amine], 91 nM.
Still for that read-out and setting: in the case of `CS(=O)(=O)c1ccccc1-c1nc2c(Cl)cccc2cc1CNc1ncnc2[nH]cnc12` [Example 35, N-((8-chloro-2-(2-(methylsulfonyl)phenyl)quinolin-3-yl)methyl)-9H-purin-6-amine] it was 222 nM; in that of `Cc1ccccc1-c1nc2c(C)cccc2cc1CSc1ncnc2[nH]cnc12` [Example 12, 3-((9H-Purin-6-ylthio)methyl)-8-methyl-2-o-tolylquinoline], 889 nM; in that of `Fc1ccc2cc(CNc3ncnc4[nH]cnc34)c(-c3ccccc3Cl)nc2c1` [Example 36, N-((2-(2-Chlorophenyl)-7-fluoroquinolin-3-yl)methyl)-9H-purin-6-amine], 225 nM.
On to `Cc1ccccc1-c1nc2c(C)cccc2cc1COc1ncnc2c1CC(=O)N2` [Example 20, 4-((8-Methyl-2-o-tolylquinolin-3-yl)methoxy)-5H-pyrrolo[2,3-d]pyrimidin-6(7H)-one], for which the IC50 at PI3Kδ was 349 nM.
Turning to `Cc1cccc2cc(COc3ncnc4[nH]cnc34)c(-c3ccccc3Cl)nc12` [Example 10, 3-((9H-Purin-6-yloxy)methyl)-2-(2-chlorophenyl)-8-methylquinoline], the IC50 on PI3Kδ was 25 nM.
Still for that read-out and setting: the same measure for `Cc1cccc2cc(COc3ncnc4[nH]cnc34)c(-c3ccccc3-c3ccccc3)nc12` [Example 8, 3-((9H-Purin-6-yloxy)methyl)-2-(biphenyl)-8-methylquinoline]: 22 nM; for `Fc1cc2cc(CNc3ncnc4[nH]cnc34)c(-c3ccccc3Cl)nc2cc1F` [Example 38, N-((2-(2-Chlorophenyl)-6,7-difluoroquinolin-3-yl)methyl)-9H-purin-6-amine]: 551 nM.
With `Clc1nc(NCc2cc3cccc(Cl)c3nc2-c2ccccc2Cl)c2nc[nH]c2n1` [Example 3, 2-Chloro-N-((8-chloro-2-(2-chlorophenyl)quinolin-3-yl)methyl)-9H-purin-6-amine], on PI3Kδ, the IC50 was 615 nM.
Regarding `COc1nc(NCc2cc3cccc(Cl)c3nc2-c2ccccc2Cl)c2cc[nH]c2n1` [Example 4, N-((8-Chloro-2-(2-chlorophenyl)quinolin-3-yl)methyl)-2-meth-oxy-7H-pyrrolo[2,3-d]pyrimidin-4-amine], the IC50 at PI3Kδ turned out to be 5420 nM.
Regarding `Fc1cccc(-c2nc3c(Cl)cccc3cc2CNc2ncnc3[nH]cnc23)c1` [Example 31, N-((8-Chloro-2-(3-fluorophenyl)quinolin-3-yl)methyl)-9H-purin-6-amine], the IC50 at PI3Kδ is 74 nM.
Take `Cc1ccccc1-n1c(Cn2cnc3c(N)ncnc32)nc2cccc(C)c2c1=O` [IC87114]: the “inhibits p110δ” value in the test with p110δ is recorded as “high nanomolar range (triple digit)”. Further, the “activity against any protein kinases tested” value with protein kinases is “no activity”. The “inflammation and disease in a murine model of asthma” value in the test on murine model of asthma was “significantly ameliorate inflammation and disease”.
For the molecule `Fc1cc(F)cc(-c2nc3c(Cl)cccc3cc2CNc2ncnc3[nH]cnc23)c1` [Example 33, N-((8-Chloro-2-(3,5-difluorophenyl)quinolin-3-yl)methyl)-9H-purin-6-amine], the IC50 at PI3Kδ came to 76 nM.
For `C[C@@H](Nc1ncnc2[nH]cnc12)c1cc2cccc(Cl)c2nc1-c1cccc(F)c1` [N-((R)-1-(8-Chloro-2-(3-fluorophenyl)quinolin-3-yl)ethyl)-9H-purin-6-amine], the IC50 at PI3Kδ was 424 nM.
